For assay [1], the target named is T1, human somatostatin receptor subtype 5 (Homo sapiens, UniProt P35346).
T1 construct: expressed in transfected cells
Description: cAMP assay for SST5R (inhibition of cAMP in CHO-K1 cells). The class given is cell-based. The conditions noted are these: for pEC50: inhibition of cAMP via human SST5 receptor, read-out: SST5 potency; for Fold selectivity for SST5 vs SST2: class symbols, SST5 receptor over SST2 receptor. The essentials: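 CHO-K1 cells stably expressing human SSTR5 were treated 20 min at 37 °C with compounds plus 1.6 μM NKH477 in HBSS, 0.5 mM HEPES pH 7.4, 0.1% BSA, 0.2 mM IBMX. Lysate cAMP measured by HTRF against a standard curve; EC50 from cAMP-versus-concentration plots.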

In assay [2] the target is T2, human somatostatin receptor subtype 2 (Homo sapiens, UniProt P30874).
T2 construct: expressed in transfected cells
Description: cAMP assay for SST2R (inhibition of cAMP in CHO-K1 cells). The conditions noted are these: Table B; inhibition of cAMP via human SST2 receptor; read-out: SST2 potency. The class given is cell-based. The essentials:
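CHO-K1 cells stably expressing human SSTR2, plated 4 days prior, treated 20 min at 37° C with 1.6 μM NKH477 plus compound dilutions in HBSS/HEPES pH 7.4/0.1% BSA/0.2 mM IBMX. Lysate cAMP measured by HTRF against standard curve; EC50 from concentration-response.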

We go through 19 compounds from patent publication US12600709B2, “Nonpeptide somatostatin type 5 receptor agonists and uses thereof” (Crinetics Pharmaceuticals, Inc., priority 2019, dated 2026).

pEC50: −log10 of the molar value. Like-named read-outs stand apart in the source and are kept apart here.

T2 sequence (P30874 whole entry): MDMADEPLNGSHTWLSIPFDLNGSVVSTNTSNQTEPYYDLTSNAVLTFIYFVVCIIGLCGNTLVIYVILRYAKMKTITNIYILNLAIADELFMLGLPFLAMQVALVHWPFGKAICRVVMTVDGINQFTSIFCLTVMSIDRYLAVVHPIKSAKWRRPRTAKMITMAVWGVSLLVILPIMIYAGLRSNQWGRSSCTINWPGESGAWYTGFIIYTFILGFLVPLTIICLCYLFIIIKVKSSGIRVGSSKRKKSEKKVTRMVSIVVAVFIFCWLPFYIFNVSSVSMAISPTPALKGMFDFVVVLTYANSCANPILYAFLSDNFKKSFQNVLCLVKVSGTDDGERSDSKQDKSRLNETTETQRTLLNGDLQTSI
T1 sequence (P35346 whole entry): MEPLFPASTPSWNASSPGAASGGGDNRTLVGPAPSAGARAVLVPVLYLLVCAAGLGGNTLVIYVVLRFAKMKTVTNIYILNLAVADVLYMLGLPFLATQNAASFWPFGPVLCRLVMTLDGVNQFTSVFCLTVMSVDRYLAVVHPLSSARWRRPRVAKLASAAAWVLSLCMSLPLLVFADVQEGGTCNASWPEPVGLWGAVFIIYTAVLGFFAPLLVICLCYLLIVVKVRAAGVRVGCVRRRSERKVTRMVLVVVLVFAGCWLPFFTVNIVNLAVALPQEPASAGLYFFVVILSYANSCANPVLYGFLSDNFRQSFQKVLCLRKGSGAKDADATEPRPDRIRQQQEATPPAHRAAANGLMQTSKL

Regarding `COc1cc(-c2c(C#N)ncc(C(=O)N[C@@H](C)C(F)(F)F)c2N2CC[C@](C)(N)C2)ccn1` [1-170, 4-[(3S)-3-amino-3-methylpyrrolidin-1-yl]-2-cyano-2′-methoxy-N-[(2S)-1,1,1-trifluoropropan-2-yl]-[3,4′-bipyridine]-5-carboxamide], the values for the pEC50 in assay [1] (Table A), in assay [1] (Table B) and in assay [2] were greater than 8.00, greater than 8.00 and 6.00 to 7.00, respectively. Also, the “Fold selectivity for SST5 vs SST2” value in assay [1] (Table B) is listed as “+++ (+++=>500)”.
With `Cc1ncc(C(=O)N[C@@H](C)C(F)(F)F)c(N2CC[C@](C)(N)C2)c1-c1cc(F)cc(OC(F)F)c1` [1-171, 4-[(3S)-3-amino-3-methylpyrrolidin-1-yl]-5-[3-(difluoromethoxy)-5-fluorophenyl]-6-methyl-N-[(2S)-1,1,1-trifluoropropan-2-yl]pyridine-3-carboxamide], the pEC50 in assay [1] (Table A) was greater than 8.00; in assay [1] (Table B) it was greater than 8.00; in assay [2] it was 7.00 to 8.00. Besides, the “Fold selectivity for SST5 vs SST2” value in assay [1] (Table B) is reported as “+++ (+++=>500)”.
Take `Cc1ncc(C(=O)NC2CC(F)(F)C2)c(N2CC[C@](C)(N)C2)c1-c1cc(F)cc(OC(F)F)c1` [1-172, 4-[(3S)-3-amino-3-methylpyrrolidin-1-yl]-N-(3,3-difluorocyclobutyl)-5-[3-(difluoromethoxy)-5-fluorophenyl]-6-methylpyridine-3-carboxamide]: the pEC50 in assay [1] (Table A) was greater than 8.00; in assay [1] (Table B), greater than 8.00; in assay [2], 6.00 to 7.00. In addition, the “Fold selectivity for SST5 vs SST2” value in assay [1] (Table B) is given as “+++ (+++=>500)”.
For the compound `Cc1ncc(C(=O)N[C@@H](C)C2CC2)c(N2CC[C@](C)(N)C2)c1-c1cc(F)cc(OC(F)F)c1` [1-173, 4-[(3S)-3-amino-3-methylpyrrolidin-1-yl]-N-[(1S)-1-cyclopropylethyl]-5-[3-(difluoromethoxy)-5-fluorophenyl]-6-methylpyridine-3-carboxamide], the pEC50 in assay [1] (Table A) is greater than 8.00; in assay [1] (Table B), greater than 8.00; in assay [2], 6.00 to 7.00. In assay [1] (Table B), the “Fold selectivity for SST5 vs SST2” value is on record as “++ (++=100 to 499)”.
Take `Cc1ncc(C(=O)NC2CCC(F)(F)CC2)c(N2CC[C@](C)(N)C2)c1-c1cc(F)cc(OC(F)F)c1` [1-174, 4-[(3S)-3-amino-3-methylpyrrolidin-1-yl]-N-(4,4-difluorocyclohexyl)-5-[3-(difluoromethoxy)-5-fluorophenyl]-6-methylpyridine-3-carboxamide]: the results for the pEC50 in assay [1] (Table A), in assay [1] (Table B) and in assay [2] were greater than 8.00, greater than 8.00 and 6.00 to 7.00, respectively. For the same compound, the “Fold selectivity for SST5 vs SST2” value in assay [1] (Table B) is reported as “+++ (+++=>500)”.
For `CCOc1ncc(C(=O)N[C@@H](C)C2CC2)c(N2CC[C@](C)(N)C2)c1-c1cc(F)cc(F)c1` [1-176, 4-[(3S)-3-amino-3-methylpyrrolidin-1-yl]-N-[(1S)-1-cyclopropylethyl]-5-(3,5-difluorophenyl)-6-ethoxypyridine-3-carboxamide], the pEC50 in assay [1] (Table A) was greater than 8.00; in assay [1] (Table B) it was greater than 8.00; in assay [2], 6.00 to 7.00. In assay [1] (Table B), the “Fold selectivity for SST5 vs SST2” value is reported as “+++ (+++=>500)”.
Take `C[C@H](NC(=O)c1cnc(OCC(F)F)c(-c2cc(F)cc(F)c2)c1N1CC[C@](C)(N)C1)C1CC1` [1-177, 4-[(3S)-3-amino-3-methylpyrrolidin-1-yl]-N-[(1S)-1-cyclopropylethyl]-6-(2,2-difluoroethoxy)-5-(3,5-difluorophenyl)pyridine-3-carboxamide]: the values for the pEC50 in assay [1] (Table A), in assay [1] (Table B) and in assay [2] were greater than 8.00, greater than 8.00 and 7.00 to 8.00, respectively. Further, the “Fold selectivity for SST5 vs SST2” value in assay [1] (Table B) is given as “+++ (+++=>500)”.
Consider `C[C@H](NC(=O)c1cnc(OCC2CC2)c(-c2cc(F)cc(F)c2)c1N1CC[C@](C)(N)C1)C1CC1` [1-178, 4-[(3S)-3-amino-3-methylpyrrolidin-1-yl]-N-[(1S)-1-cyclopropylethyl]-6-(cyclopropylmethoxy)-5-(3,5-difluorophenyl)pyridine-3-carboxamide], for which the pEC50 was greater than 8.00 in assay [1] (Table A), greater than 8.00 in assay [1] (Table B) and 7.00 to 8.00 in assay [2]. For the same compound, the “Fold selectivity for SST5 vs SST2” value in assay [1] (Table B) was “+++ (+++=>500)”.
`COCCOc1ncc(C(=O)N[C@@H](C)C2CC2)c(N2CC[C@](C)(N)C2)c1-c1cc(F)cc(F)c1` [1-179, 4-[(3S)-3-amino-3-methylpyrrolidin-1-yl]-N-[(1S)-1-cyclopropylethyl]-5-(3,5-difluorophenyl)-6-(2-methoxyethoxy)pyridine-3-carboxamide]: the pEC50 in assay [1] (Table A) is greater than 8.00; in assay [1] (Table B), greater than 8.00; in assay [2] it was 6.00 to 7.00. The “Fold selectivity for SST5 vs SST2” value in assay [1] (Table B) is “+++ (+++=>500)”.
Regarding `C[C@H](NC(=O)c1cnc(C#N)c(-c2cc(F)cc(OC(F)F)c2)c1N1CC[C@](C)(N)C1)C(F)(F)F` [1-180, 4-[(3S)-3-amino-3-methylpyrrolidin-1-yl]-6-cyano-5-[3-(difluoromethoxy)-5-fluorophenyl]-N-[(2S)-1,1,1-trifluoropropan-2-yl]pyridine-3-carboxamide], the pEC50 in assay [1] (Table A) is greater than 8.00; in assay [1] (Table B) it was greater than 8.00; in assay [2] it was 7.00 to 8.00. Further, the “Fold selectivity for SST5 vs SST2” value in assay [1] (Table B) is listed as “+++ (+++=>500)”.
Regarding `Cc1ncc(C(=O)NC2CCC(F)(F)CC2)c(N2CC[C@](C)(N)C2)c1-c1cc(F)cc(F)c1` [1-181, 4-[(3S)-3-amino-3-methylpyrrolidin-1-yl]-N-(4,4-difluorocyclohexyl)-5-(3,5-difluorophenyl)-6-methylpyridine-3-carboxamide], the pEC50 in assay [1] (Table A) was greater than 8.00; in assay [1] (Table B) it was greater than 8.00; in assay [2] it was 6.00 to 7.00. Moreover, in assay [1] (Table B), the “Fold selectivity for SST5 vs SST2” value is on record as “+++ (+++=>500)”.
As to `COc1ncc(C(=O)N[C@@H](C)C(F)(F)F)c(N2CC[C@](C)(N)C2)c1-c1ccc2ncn(C)c2c1` [1-182, 4-[(3S)-3-amino-3-methylpyrrolidin-1-yl]-6-methoxy-5-(1-methyl-1H-1,3-benzodiazol-6-yl)-N-[(2S)-1,1,1-trifluoropropan-2-yl]pyridine-3-carboxamide], the pEC50 in assay [1] (Table A) is greater than 8.00; in assay [1] (Table B) it was greater than 8.00; in assay [2], less than 6.00. For the same compound, the “Fold selectivity for SST5 vs SST2” value in assay [1] (Table B) is “+++ (+++=>500)”.
On to `COc1ncc(C(=O)N[C@@H](C)C(F)(F)F)c(N2CC[C@](C)(N)C2)c1-c1cccc2c1cnn2C` [1-183, 4-[(3S)-3-amino-3-methylpyrrolidin-1-yl]-6-methoxy-5-(1-methyl-1H-indazol-4-yl)-N-[(2S)-1,1,1-trifluoropropan-2-yl]pyridine-3-carboxamide], for which the pEC50 in assay [1] (Table A) is greater than 8.00; in assay [1] (Table B), greater than 8.00; in assay [2], less than 6.00. Besides, the “Fold selectivity for SST5 vs SST2” value in assay [1] (Table B) is on record as “+++ (+++=>500)”.
Turning to `COc1ncc(C(=O)N[C@@H](C)C(F)(F)F)c(N2CC[C@](C)(N)C2)c1-c1cccc2c1OC(F)(F)O2` [1-184, 4-[(3S)-3-amino-3-methylpyrrolidin-1-yl]-5-(2,2-difluoro-2H-1,3-benzodioxol-4-yl)-6-methoxy-N-[(2S)-1,1,1-trifluoropropan-2-yl]pyridine-3-carboxamide], the results for the pEC50 in assay [1] (Table A), in assay [1] (Table B) and in assay [2] were greater than 8.00, greater than 8.00 and 6.00 to 7.00, respectively. Moreover, the “Fold selectivity for SST5 vs SST2” value in assay [1] (Table B) is “+++ (+++=>500)”.
As for `COc1ncc(C(=O)N[C@@H](C)C(F)(F)F)c(N2CC[C@](C)(N)C2)c1-c1ccc2nonc2c1` [1-186, 4-[(3S)-3-amino-3-methylpyrrolidin-1-yl]-5-(2,1,3-benzoxadiazol-5-yl)-6-methoxy-N-[(2S)-1,1,1-trifluoropropan-2-yl]pyridine-3-carboxamide], the pEC50 in assay [1] (Table A) was greater than 8.00; in assay [1] (Table B), greater than 8.00; in assay [2] it was 6.00 to 7.00. The “Fold selectivity for SST5 vs SST2” value in assay [1] (Table B) is listed as “+++ (+++=>500)”.
For `COc1ncc(C(=O)N[C@@H](C)C(F)(F)F)c(N2CC[C@](C)(N)C2)c1-c1c(C)noc1C` [1-187, 4-[(3S)-3-amino-3-methylpyrrolidin-1-yl]-5-(3,5-dimethyl-1,2-oxazol-4-yl)-6-methoxy-N-[(2S)-1,1,1-trifluoropropan-2-yl]pyridine-3-carboxamide], the pEC50 in assay [1] (Table A) is greater than 8.00; in assay [1] (Table B), greater than 8.00; in assay [2], less than 6.00. In assay [1] (Table B), the “Fold selectivity for SST5 vs SST2” value is recorded as “+++ (+++=>500)”.
`COc1ncc(C(=O)N[C@@H](C)C(F)(F)F)c(N2CC[C@](C)(N)C2)c1-c1cc(F)cc(OC(F)F)c1` [1-188, 4-[(3S)-3-amino-3-methylpyrrolidin-1-yl]-5-[3-(difluoromethoxy)-5-fluorophenyl]-6-methoxy-N-[(2S)-1,1,1-trifluoropropan-2-yl]pyridine-3-carboxamide]: the pEC50 in assay [1] (Table A) was greater than 8.00; in assay [1] (Table B) it was greater than 8.00; in assay [2], 6.00 to 7.00. Also, the “Fold selectivity for SST5 vs SST2” value in assay [1] (Table B) was “+++ (+++=>500)”.
Take `C[C@H](NC(=O)c1cnc(C#N)c(-c2cc(F)cc(F)c2)c1N1CC[C@](C)(N)C1)C(F)(F)F` [1-192, 4-[(3S)-3-amino-3-methylpyrrolidin-1-yl]-6-cyano-5-(3,5-difluorophenyl)-N-[(2S)-1,1,1-trifluoropropan-2-yl]pyridine-3-carboxamide]: the values for the pEC50 in assay [1] (Table A), in assay [1] (Table B) and in assay [2] were greater than 8.00, greater than 8.00 and 7.00 to 8.00, respectively. For the same compound, in assay [1] (Table B), the “Fold selectivity for SST5 vs SST2” value was “++ (++=100 to 499)”.
As for `C[C@H](NC(=O)c1cnc(C(F)(F)F)c(-c2cc(F)cc(Cl)c2)c1N1CC[C@](C)(N)C1)C1CC1` [1-195, 4-[(3S)-3-amino-3-methylpyrrolidin-1-yl]-5-(3-chloro-5-fluorophenyl)-N-[(1S)-1-cyclopropylethyl]-6-(trifluoromethyl)pyridine-3-carboxamide], the pEC50 is greater than 8.00 in assay [1] (Table A), greater than 8.00 in assay [1] (Table B) and 7.00 to 8.00 in assay [2]. The “Fold selectivity for SST5 vs SST2” value in assay [1] (Table B) is on record as “++ (++=100 to 499)”.
